Test results as given in patent US20120029048A1, “PHENYLALKYL N-HYDROXYUREAS FOR TREATING LEUKOTRIENE RELATED PATHOLOGIES” (VIA Pharmaceuticals, Inc., priority 2010, published 2012).

Experiments:
LTE4 = test: Urinary LTE4 by LC/MS/MS, Phase 2 CEA study; assay type: in vivo, human; conditions: 100 mg qd oral 12 weeks, CEA patients, compared with placebo (p<0.01)
Protocol: (§1) In this randomized, double blind, placebo-controlled study, 50 patients with significant carotid artery stenosis (60-90%) were treated once daily for 12 weeks with orally administered 100 mg N-[3-[5-[(4-fluorophenyl)methyl]-2-thienyl]-1-methyl-2-propynyl]-N-hydroxyurea or placebo prior to undergoing CEA, at which time endarterectomy tissue (plaque) was collected and stored for subsequent tissue analysis. Baseline assessments are performed at the start of treatment and these baseline results were compared with repeat assessments during various follow-up periods of treatment. The treatment was conducted for twelve weeks at which time these baseline assessments were performed and compared. Patients received a total single daily oral dose of 100 mg of N-[3-[5-[(4-fluorophenyl)methyl]-2-thienyl]-1-methyl-2-propynyl]-N-hydroxyurea or matching placebo by administering 2 capsules as prepared in Example 3 for 12 weeks. Blood samples for measurement of ex vivo LTB4 and hsCRP, and urine samples for measurement of urinary LTE4 levels were collected pre-dose on weeks 2, 6 and 12. […] LTB4, LTE4 and hsCRP biomarker data were assessed using change from baseline comparisons and an ANCOVA was used to compare the treatment groups where the covariate was the baseline value of the outcome measure. […]

[1] = test system: carotid plaques with rupture-prone histological subtypes; test: Relative necrotic core thickness in carotid plaques, Phase 2 CEA study; assay type: in vivo, human; conditions: rupture-prone plaque subtypes, 100 mg qd 12 weeks, compared with placebo (p<0.02)
Protocol: (§2) In this randomized, double blind, placebo-controlled study, 50 patients with significant carotid artery stenosis (60-90%) were treated once daily for 12 weeks with orally administered 100 mg N-[3-[5-[(4-fluorophenyl)methyl]-2-thienyl]-1-methyl-2-propynyl]-N-hydroxyurea or placebo prior to undergoing CEA, at which time endarterectomy tissue (plaque) was collected and stored for subsequent tissue analysis. Baseline assessments are performed at the start of treatment and these baseline results were compared with repeat assessments during various follow-up periods of treatment. The treatment was conducted for twelve weeks at which time these baseline assessments were performed and compared.
(§3) At the end of 12 weeks treatment with 100 mg of N-[3-[5-[(4-fluorophenyl)methyl]-2-thienyl]-1-methyl-2-propynyl]-N-hydroxyurea, patients underwent CEA, at which time endarterectomy tissue (plaque) was collected, fixed in 10% formalin and paraffin blocks, and stored for subsequent tissue analysis. […] A portion of each of the plaques was also analyzed for inflammatory gene expression after isolation of total RNA and reverse transcription using a TaqMan® High Capacity cDNA assay.
(§4) LTB4, LTE4 and hsCRP biomarker data were assessed using change from baseline comparisons and an ANCOVA was used to compare the treatment groups where the covariate was the baseline value of the outcome measure. […]

non-calcified plaque = test: Serial MDCT coronary plaque imaging, Phase 2 ACS study, 24-week substudy; assay type: in vivo, human; conditions: all three doses, 24 weeks, compared with placebo
Protocol: In this randomized, placebo-controlled study, 191 patients were randomized 3 weeks after an acute coronary syndrome (ACS) to receive 25, 50, or 100 mg N-[3-[5-[(4-fluorophenyl)methyl]-2-thienyl]-1-methyl-2-propynyl]-N-hydroxyurea or placebo qd for 12 weeks. Baseline assessments were performed at the start of treatment and these baseline results were compared with repeat assessments during various follow-up periods during the treatment study. A subset of 93 patients who had undergone a Multidetector (64 slice coronary) Computerized Tomography (MDCT) examination at baseline continued on study medication for a total of 24 weeks and underwent a repeat scan. For those patients who continued on study medication for a total of 24 weeks, contrast-enhanced CT examination was performed at baseline and after 24 weeks of treatment with a 64-slice scanner (GE LightSpeed VCT; GE Healthcare, USA). Target plaque lesions were defined prospectively as non-calcified plaque with measurable low-density components of <60 HU situated in the proximal or middle portion of either the left main, left anterior ascending, left circumflex or right coronary artery causing at least 20% luminal stenosis. Prior to analysis of results, patients had their MDCT examinations evaluated twice by the same reviewer and also by a second reviewer for evaluation of intraobserver and interobserver variability of measurements.

LTB4 = test: Ex vivo LTB4 in blood by ELISA, Phase 2 CEA study; set-up: species or system human; conditions: 100 mg qd oral 12 weeks, CEA patients, compared with placebo (p<0.0001)
Protocol: as §1

leukotriene B4 (LTB4) = test: Ex vivo LTB4 in blood by ELISA, Phase 2 ACS study; set-up: species or system human; conditions: trough drug levels
Protocol: (§5) In this randomized, placebo-controlled study, 191 patients were randomized 3 weeks after an acute coronary syndrome (ACS) to receive 25, 50, or 100 mg N-[3-[5-[(4-fluorophenyl)methyl]-2-thienyl]-1-methyl-2-propynyl]-N-hydroxyurea or placebo qd for 12 weeks. Baseline assessments were performed at the start of treatment and these baseline results were compared with repeat assessments during various follow-up periods during the treatment study. A subset of 93 patients who had undergone a Multidetector (64 slice coronary) Computerized Tomography (MDCT) examination at baseline continued on study medication for a total of 24 weeks and underwent a repeat scan. Patients received a single daily oral dose of 25 mg, 50 mg, or 100 mg of N-[3-[5-[(4-fluorophenyl)methyl]-2-thienyl]-1-methyl-2-propynyl]-N-hydroxyurea or matching placebo by administering 2 capsules as prepared in Example 3 for 12 weeks or 24 weeks. Blood samples for measurement of ex vivo leukotriene B4 (LTB4) and high sensitivity C reactive protein (hsCRP), and urine samples for measurement of urinary leukotriene E4 (LTE4) levels were collected pre-dose on weeks 2, 6 and 12. Blood samples were assayed for ex vivo LTB4 by enzyme-linked immunosorbent assay, and for hsCRP by an immunoturbidimetric method. Urine samples were assayed for LTE4 using Liquid Chromatography with Tandem Mass Spectrometry (LC/MS/MS).

[2] = test system: high sensitivity C reactive protein (hsCRP); test: hsCRP in blood by immunoturbidimetric method, Phase 2 ACS study; assay type: in vivo, human; conditions: for hsCRP change from baseline, LSMEANS geometric mean (%) / hsCRP change from baseline, Median (25-75): 12 weeks
Protocol: as §5

[3] = test system: inflammatory genes IL-6, IL 8, IL-10, MMP9, I-kappa-B, osteopontin; test: Inflammatory gene expression in carotid plaques (TaqMan), Phase 2 CEA study; assay type: in vivo, human; conditions: rupture-prone plaque subtypes, 100 mg qd 12 weeks
Protocol: as §2, §3, §4

leukotriene E4 (LTE4) = test: Urinary LTE4 by LC/MS/MS, Phase 2 ACS study; assay type: in vivo, human; conditions: all doses (25, 50, 100 mg qd), ACS patients
Protocol: as §5

hsCRP = hsCRP in blood by immunoturbidimetric method, Phase 2 CEA study; assay type: in vivo, human; conditions: 100 mg qd oral 12 weeks, CEA patients, compared with placebo (p<0.01)
Protocol: as §1

[4] = 12-week main population, 25 mg qd oral
[5] = 12-week main population, 50 mg qd oral
[6] = 12-week main population, 100 mg qd oral
[7] = 24-week CT substudy population, 25 mg qd oral
[8] = 24-week CT substudy population, 50 mg qd oral
[9] = 24-week CT substudy population, 100 mg qd oral

## CC(C#Cc1ccc(Cc2ccc(F)cc2)s1)N(O)C(N)=O (stereo not shown) [VIA-2291, N-[3-[5-[(4-fluorophenyl)methyl]-2-thienyl]-1-methyl-2-propynyl]-N-hydroxyurea]
LTE4
  reduction of urine LTE4: 65%
[1]
  reduction of relative necrotic core thickness: 21%
non-calcified plaque
  effect on new plaque lesions in serial MDCT images: reduced
  effect on non-calcified plaque volume in serial MDCT images: reduced
LTB4
  reduction of ex vivo LTB4: approximately 90%
Leukotriene B4 (LTB4); 100-mg group
  patients with approximately 80% inhibition of ex vivo LTB4: > 90 % of patients
Leukotriene B4 (LTB4); 100-mg group, ACS patients
  inhibition of ex vivo LTB4: approximately 80%
Leukotriene B4 (LTB4); all doses (25, 50, 100 mg qd), P<0.0001, dose-dependent
  effect on ex vivo leukotriene LTB4: significantly reduced
[2]; 100 mg group (P<0.01)
  change in hsCRP within group between 12 and 24 weeks: significant reduction
[2]; 12-week main population, 25 mg qd oral (n = 44)
  hsCRP at 12 weeks, Median (25-75): 1.1 (0.6, 2.5)
[2]; 12-week main population, 50 mg qd oral (n = 38)
  hsCRP at 12 weeks, Median (25-75): 1.3 (0.4, 2.7)
[2]; 12-week main population, 100 mg qd oral (n = 38)
  hsCRP at 12 weeks, Median (25-75): 0.6 (0.3, 2.5)
[2]; [4]
  hsCRP change from baseline, LSMEANS geometric mean (%): −25.32%
  hsCRP change from baseline, Median (25-75): −0.2 (−1.1, 0.4)
[2]; [5]
  hsCRP change from baseline, LSMEANS geometric mean (%): −29.13%
  hsCRP change from baseline, Median (25-75): −0.1 (−1.9, 0.1)
[2]; [6]
  hsCRP change from baseline, LSMEANS geometric mean (%): −38.99%
  hsCRP change from baseline, Median (25-75): −0.3 (−0.8, 0.1)
[2]; [7]
  hsCRP 12 weeks change from baseline, LSMEANS geometric mean (%): −24.82%
  hsCRP 12 weeks change from baseline, Median (25-75): −0.1 (−1.5, 0.8)
  hsCRP 24 weeks change from baseline, LSMEANS geometric mean (%): −32.91%
  hsCRP 24 weeks change from baseline, Median (25-75): −0.4 (−1.2, 0.3)
  hsCRP at 24 weeks, Median (25-75): 1.2 (0.7, 2.1)
[2]; 24-week CT substudy population, 25 mg qd oral (n = 23)
  hsCRP at 12 weeks, Median (25-75): 1.1 (0.6, 2.4)
[2]; [8]
  hsCRP 12 weeks change from baseline, LSMEANS geometric mean (%): −22.71%
  hsCRP 12 weeks change from baseline, Median (25-75): −0.1 (−5.0, 0.6)
  hsCRP 24 weeks change from baseline, LSMEANS geometric mean (%): −27.05%
  hsCRP 24 weeks change from baseline, Median (25-75): −0.2 (−3.7, 0.2)
  hsCRP at 24 weeks, Median (25-75): 1.5 (0.6, 2.6)
[2]; 24-week CT substudy population, 50 mg qd oral (n = 20)
  hsCRP at 12 weeks, Median (25-75): 1.7 (0.4, 4.3)
[2]; [9]
  hsCRP 12 weeks change from baseline, LSMEANS geometric mean (%): −39.05%
  hsCRP 12 weeks change from baseline, Median (25-75): −0.3 (−2.4, 0.1)
  hsCRP 24 weeks change from baseline, LSMEANS geometric mean (%): −67.16%
  hsCRP 24 weeks change from baseline, Median (25-75): −0.4 (−3.9, −0.2)
  hsCRP at 24 weeks, Median (25-75): 0.3 (0.2, 0.9)
[2]; 24-week CT substudy population, 100 mg qd oral (n = 18)
  hsCRP at 12 weeks, Median (25-75): 0.6 (0.4, 2.0)
[2]; 100-mg group at 24 weeks, compared with placebo (P=0.0002)
  decrease in hsCRP: 67%
[3]
  expression of inflammatory genes IL-6, IL 8, IL-10, MMP9, I-kappa-B, osteopontin: reduction in expression
Leukotriene E4 (LTE4)
  effect on urinary leukotriene LTE4: significantly reduced
hsCRP
  reduction of hsCRP: 2.0 mg/L
